Experimental data as given in US12162890B2 (Novartis AG, priority 2015, dated 2024).

Biological target: HEK293 cells with stable expression of the GRIN1 gene and tetracycline-inducible expression of the GRIN2B gene (NMDA receptor, NR2B) (Homo sapiens, UniProt Q13224)
Test: Fluo-8 Ca2+ flux assay: reversal of Ro 25-6981-mediated suppression of the Ca2+ response to co-agonist (glutamate/glycine); also: test concentration or dose not given here
Type: cell-based
Conditions: reversal of the Ro 25-6981 suppression of the Ca2+ response to co-agonist (glutamate/glycine)

HEK293 cells with stable expression of the GRIN1 gene and tetracycline-inducible expression of the GRIN2B gene (NMDA receptor, NR2B), sequence (Q13224 27-1484, other chains not shown): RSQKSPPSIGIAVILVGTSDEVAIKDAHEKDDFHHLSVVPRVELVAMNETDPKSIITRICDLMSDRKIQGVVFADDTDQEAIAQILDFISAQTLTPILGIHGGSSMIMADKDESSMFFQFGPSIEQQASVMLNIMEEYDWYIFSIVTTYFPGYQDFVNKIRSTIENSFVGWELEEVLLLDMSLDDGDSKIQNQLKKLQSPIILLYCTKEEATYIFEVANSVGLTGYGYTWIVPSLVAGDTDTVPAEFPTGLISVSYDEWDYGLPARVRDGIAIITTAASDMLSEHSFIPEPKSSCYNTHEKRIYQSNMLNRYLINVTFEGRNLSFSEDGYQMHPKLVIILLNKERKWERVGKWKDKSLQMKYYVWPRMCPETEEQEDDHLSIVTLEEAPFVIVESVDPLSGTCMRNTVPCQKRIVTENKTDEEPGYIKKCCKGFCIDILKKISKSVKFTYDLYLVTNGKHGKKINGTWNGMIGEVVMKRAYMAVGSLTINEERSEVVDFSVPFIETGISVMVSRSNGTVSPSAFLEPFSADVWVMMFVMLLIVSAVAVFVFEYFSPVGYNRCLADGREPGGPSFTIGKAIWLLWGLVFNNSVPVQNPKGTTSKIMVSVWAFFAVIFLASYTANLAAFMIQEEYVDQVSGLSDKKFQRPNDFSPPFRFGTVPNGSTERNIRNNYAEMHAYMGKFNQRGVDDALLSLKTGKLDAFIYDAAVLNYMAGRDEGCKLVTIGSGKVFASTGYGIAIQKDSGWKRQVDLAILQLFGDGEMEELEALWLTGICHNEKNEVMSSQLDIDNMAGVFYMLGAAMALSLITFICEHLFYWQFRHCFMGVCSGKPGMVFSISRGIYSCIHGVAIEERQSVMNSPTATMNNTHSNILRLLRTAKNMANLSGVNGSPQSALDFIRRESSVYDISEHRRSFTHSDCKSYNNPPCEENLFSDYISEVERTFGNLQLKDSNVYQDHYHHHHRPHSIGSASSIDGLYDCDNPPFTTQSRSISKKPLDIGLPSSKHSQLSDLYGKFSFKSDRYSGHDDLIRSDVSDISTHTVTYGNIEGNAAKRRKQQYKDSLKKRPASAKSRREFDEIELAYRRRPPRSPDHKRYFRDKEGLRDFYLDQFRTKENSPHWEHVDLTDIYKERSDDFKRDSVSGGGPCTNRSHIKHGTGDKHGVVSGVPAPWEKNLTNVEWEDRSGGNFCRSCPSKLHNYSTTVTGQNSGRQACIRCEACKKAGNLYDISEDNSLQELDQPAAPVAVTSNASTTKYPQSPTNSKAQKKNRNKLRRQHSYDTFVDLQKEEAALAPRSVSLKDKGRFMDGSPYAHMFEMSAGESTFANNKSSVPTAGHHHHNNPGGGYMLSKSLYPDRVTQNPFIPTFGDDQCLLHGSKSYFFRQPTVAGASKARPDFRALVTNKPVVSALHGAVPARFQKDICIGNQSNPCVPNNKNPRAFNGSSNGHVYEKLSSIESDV

Structure (SMILES)	Response Recovered (%)
O=C(Cn1cnc2snc(-c3ccc(Cl)cc3)c2c1=O)N1CCCC1 [Example 380, 3-(4-chlorophenyl)-5-(2-oxo-2-(pyrrolidin-1-yl)ethyl)isothiazolo[5,4-d]pyrimidin-4(5H)-one]	6
O=C(Cn1cnc2ccn(-c3ccc(Cl)cc3)c2c1=O)NC1CC1 [Example 375, 2-(5-(4-chlorophenyl)-4-oxo-4,5-dihydro-3H-pyrrolo[3,2-d]pyrimidin-3-yl)-N-cyclopropylacetamide]	0
Cc1ncc(-c2csc3ccn(CC(=O)N4CC(C)(F)C4)c(=O)c23)cc1Cl [Example 90, 3-(5-chloro-6-methylpyridin-3-yl)-5-(2-(3-fluoro-3-methylazetidin-1-yl)-2-oxoethyl)thieno[3,2-c]pyridin-4(5H)-one]	75
C[Si](C)(C)CCOCn1cc(-c2ccc(Cl)c(F)c2)c2c(=O)n(CC(=O)N3CCC(F)C3)ccc21 (stereo not drawn) [Example 202, 3-(4-chloro-3-fluorophenyl)-5-(2-(3-fluoropyrrolidin-1-yl)-2-oxoethyl)-1-((2-(trimethylsilyl)ethoxy)methyl)-1H-pyrrolo[3,2-c]pyridin-4(5H)-one]	32
O=C(Cn1ccc2scc(-c3ccc(Cl)c(Cl)c3)c2c1=O)N1CC(F)(CF)C1 [Example 82, 3-(3,4-dichlorophenyl)-5-(2-(3-fluoro-3-(fluoromethyl)azetidin-1-yl)-2-oxoethyl)thieno[3,2-c]pyridin-4(5H)-one]	140
O=C(Cn1cnc2csc(-c3ccc(Cl)cc3)c2c1=O)NC1CC1 [Example 346, 2-(5-(4-chlorophenyl)-4-oxothieno[3,4-d]pyrimidin-3(4H)-yl)-N-cyclopropylacetamide]	0
O=C(Cn1ccn2ncc(-c3ccc(F)c(C(F)(F)F)c3)c2c1=O)N1CC(F)(F)C1 [Example 324, 5-(2-(3,3-difluoroazetidin-1-yl)-2-oxoethyl)-3-(4-fluoro-3-(trifluoromethyl)phenyl)pyrazolo[1,5-a]pyrazin-4(5H)-one]	51
O=C(Cn1ncc2scc(-c3ccc(Cl)c(F)c3)c2c1=O)N1CCCC1 [Example 336, 3-(4-chloro-3-fluorophenyl)-5-(2-oxo-2-(pyrrolidin-1-yl)ethyl)thieno[2,3-d]pyridazin-4(5H)-one]	3
O=C(Cn1cnc2csc(-c3ccc(C(F)(F)F)cc3)c2c1=O)N1CC(F)(F)C1 [Example 358, 3-(2-(3,3-difluoroazetidin-1-yl)-2-oxoethyl)-5-(4-(trifluoromethyl)phenyl)thieno[3,4-d]pyrimidin-4(3H)-one]	12
O=C(Cn1cnc2ccn(-c3ccc(Cl)cc3)c2c1=O)N1CCOCC1 [Example 371, 5-(4-chlorophenyl)-3-(2-morpholino-2-oxoethyl)-3H-pyrrolo[3,2-d]pyrimidin-4(5H)-one]	1
O=C(Cn1cnc2csc(-c3ccc(Cl)cc3)c2c1=O)N1CCC(O)C1 (stereo not drawn) [Example 352, 5-(4-chlorophenyl)-3-(2-(3-hydroxypyrrolidin-1-yl)-2-oxoethyl)thieno[3,4-d]pyrimidin-4(3H)-one]	7
CC1(F)CN(C(=O)Cn2ccc3scc(-c4cncc(Cl)n4)c3c2=O)C1 [Example 145, 3-(6-chloropyrazin-2-yl)-5-(2-(3-fluoro-3-methylazetidin-1-yl)-2-oxoethyl)thieno[3,2-c]pyridin-4(5H)-one]	3
O=C(Cn1cnc2snc(-c3ccc(Cl)cc3)c2c1=O)N1CC(F)(F)C1 [Example 381, 3-(4-chlorophenyl)-5-(2-(3,3-difluoroazetidin-1-yl)-2-oxoethyl)isothiazolo[5,4-d]pyrimidin-4(5H)-one]	2
O=C(Cn1cnc2[nH]nc(-c3ccc(Cl)c(C(F)(F)F)c3)c2c1=O)N1CCC(F)C1 (stereo not drawn) [Example 318, 3-(4-chloro-3-(trifluoromethyl)phenyl)-5-(2-(3-fluoropyrrolidin-1-yl)-2-oxoethyl)-1H-pyrazolo[3,4-d]pyrimidin-4(5H)-one]	26
O=C(Cn1cnc2ccn(-c3ccc(Cl)cc3)c2c1=O)N1CCC1 [Example 370, 3-(2-(azetidin-1-yl)-2-oxoethyl)-5-(4-chlorophenyl)-3H-pyrrolo[3,2-d]pyrimidin-4(5H)-one]	4

The next lines start with the values.

Response Recovered (%)	Structure (SMILES)
54	O=C(Cn1ccc2c(c(-c3ccc(F)c(C(F)(F)F)c3)cn2CCO)c1=O)N1CCC(F)C1 (stereo not drawn) [Example 256, 3-(4-fluoro-3-(trifluoromethyl)phenyl)-5-(2-(3-fluoropyrrolidin-1-yl)-2-oxoethyl)-1-(2-hydroxyethyl)-1H-pyrrolo[3,2-c]pyridin-4(5H)-one]
33	O=C(Cn1ccc2ncc(-c3ccc(Cl)c(Cl)c3)n2c1=O)N1CCC(F)C1 (stereo not drawn) [Example 450, 3-(3,4-dichlorophenyl)-6-(2-(3-fluoropyrrolidin-1-yl)-2-oxoethyl)imidazo[1,2-c]pyrimidin-5(6H)-one]
81	O=C(Cn1ccc2scc(-c3ccc(F)c(Cl)c3)c2c1=O)N1CCC(F)C1 (stereo not drawn) [Example 9, 3-(3-Chloro-4-fluoro-phenyl)-5-[2-(3-fluoro-pyrrolidin-1-yl)-2-oxo-ethyl]-5H-thieno[3,2-c]pyridin-4-one]
40	O=C(Cn1ccc2cccc(-c3ccc(F)c(Cl)c3)c2c1=O)N1CCC(F)C1 (stereo not drawn) [Example 302, 8-(3-chloro-4-fluorophenyl)-2-(2-(3-fluoropyrrolidin-1-yl)-2-oxoethyl)isoquinolin-1(2H)-one]
99	O=C(Cn1ccc2scc(-c3ccc(Cl)c(C(F)(F)F)c3)c2c1=O)N1CC[C@@H](F)C1 [Example 17, (R)-3-(4-chloro-3-(trifluoromethyl)phenyl)-5-(2-(3-fluoropyrrolidin-1-yl)-2-oxoethyl)thieno[3,2-c]pyridin-4(5H)-one]
53	COCCn1cc(-c2ccc(F)c(C(F)(F)F)c2)c2c(=O)n(CC(=O)N3CCC(F)C3)cnc21 (stereo not drawn) [Example 188, 5-(4-fluoro-3-(trifluoromethyl)phenyl)-3-(2-(3-fluoropyrrolidin-1-yl)-2-oxoethyl)-7-(2-methoxyethyl)-3H-pyrrolor[2,3-d]pyrimidin-4(7H)-one]
96	O=C(Cn1ccc2c(c(-c3ccc(F)c(C(F)(F)F)c3)cn2CCF)c1=O)N1CCC(F)C1 (stereo not drawn) [Example 252, 3-(4-fluoro-3-(trifluoromethyl)phenyl)-1-(2-fluoroethyl)-5-(2-(3-fluoropyrrolidin-1-yl)-2-oxoethyl)-1H-pyrrolo[3,2-c]pyridin-4(5H)-one]
40	O=C(Cn1cnc2c(c(-c3ccc(F)c(Cl)c3)cn2CCF)c1=O)N1CCCC1 [Example 172]
1.5	O=C(Cn1ccn2ccc(-c3ccc(F)c(Cl)c3)c2c1=O)N1CC(F)(c2ccccc2)C1 [Example 399, 8-(3-chloro-4-fluorophenyl)-2-(2-(3-fluoro-3-phenylazetidin-1-yl)-2-oxoethyl)pyrrolo[1,2-a]pyrazin-1(2H)-one]
97	O=C(Cn1cc(CO)c2scc(-c3ccc(F)c(C(F)(F)F)c3)c2c1=O)N1CCC(F)C1 (stereo not drawn) [Example 111, 3-(4-fluoro-3-(trifluoromethyl)phenyl)-5-(2-(3-fluoropyrrolidin-1-yl)-2-oxoethyl)-7-(hydroxymethyl)thieno[3,2-c]pyridin-4(5H)-one]
52	Cc1cn(CC(=O)N2CCC(F)C2)c(=O)c2c(-c3ccc(F)c(Cl)c3)cc(Br)n12 (stereo not drawn) [Example 415, 6-bromo-8-(3-chloro-4-fluorophenyl)-2-(2-(3-fluoropyrrolidin-1-yl)-2-oxoethyl)-4-methylpyrrolo[1,2-a]pyrazin-1(2H)-one]
58	O=C(Cn1cnc2[nH]cc(-c3ccc(F)c(Cl)c3)c2c1=O)N1CC(F)(F)C1 [Example 161, 5-(3-chloro-4-fluorophenyl)-3-(2-(3,3-difluoroazetidin-1-yl)-2-oxoethyl)-3H-pyrrolo[2,3-d]pyrimidin-4(7H)-onepyrrolo[2,3-d]pyrimidin-4(7H)-one]
18	Cc1nc(-c2ccc(F)c(Cl)c2)c2c(=O)n(CC(=O)N3CCC(F)C3)ccn12 (stereo not drawn) [Example 428, 1-(3-chloro-4-fluorophenyl)-7-(2-(3-fluoropyrrolidin-1-yl)-2-oxoethyl)-3-methylimidazo[1,5-a]pyrazin-8(7H)-one]
89	O=C(Cn1cc(CN2CCCC2)c2scc(-c3ccc(F)c(C(F)(F)F)c3)c2c1=O)N1CCC(F)C1 (stereo not drawn) [Example 112, 3-(4-fluoro-3-(trifluoromethyl)phenyl)-5-(2-(3-fluoropyrrolidin-1-yl)-2-oxoethyl)-7-(pyrrolidin-1-ylmethyl)thieno[3,2-c]pyridin-4(5H)-one]
19	O=C(Cn1ccn2c(C3CC3)nc(-c3ccc(F)c(Cl)c3)c2c1=O)N1CCC(F)C1 (stereo not drawn) [Example 432, 1-(3-chloro-4-fluorophenyl)-3-cyclopropyl-7-(2-(3-fluoropyrrolidin-1-yl)-2-oxoethyl)imidazo[1,5-a]pyrazin-8(7H)-one]
97	CCC1(F)CN(C(=O)Cn2ccn3ccc(-c4ccc(F)c(Cl)c4)c3c2=O)C1 [Example 400, 8-(3-chloro-4-fluorophenyl)-2-(2-(3-ethyl-3-fluoroazetidin-1-yl)-2-oxoethyl)pyrrolo[1,2-a]pyrazin-1(2H)-one]
25	Cn1cc(-c2ccc(Cl)c(F)c2)c2c(=O)n(CC(=O)N3CCCC3)cnc21 [Example 165, 5-(4-chloro-3-fluorophenyl)-7-methyl-3-(2-oxo-2-(pyrrolidin-1-yl)ethyl)-3H-pyrrolo[2,3-d]pyrimidin-4(7H)-one]
140	COCn1cc(-c2ccc(F)c(Cl)c2)c2c(=O)n(CC(=O)N3CC(C)(F)C3)ccc21 [Example 254, 3-(3-chloro-4-fluorophenyl)-5-(2-(3-fluoro-3-methylazetidin-1-yl)-2-oxoethyl)-1-(methoxymethyl)-1,5-dihydro-4H-pyrrolo[3,2-c]pyridin-4-one]
